Results reported in patent publication US12691119B2, “Methods for treating covid-19 with sepiapterin” (PTC Therapeutics MP, Inc., priority 2021, dated 2026).

Legend:
[1] = Stability on exposure to air; assay type: physicochemical; details: exposed to air
Description: Accordingly, pharmaceutical compositions of the invention may include antioxidants. The antioxidant may minimize the oxidative degradation of sepiapterin. […]

[2] = system: cytokine expression in the lungs; assay: Intranasal LPS model of ARDS, cytokine expression in BAL fluid by ELISA; assay type: in vivo; details: mice, 10 mg/kg per day oral gavage for 3 days, then 40 ug LPS intranasally; BAL 16-18 hours later; FIG. 1
Protocol: FIG. 1 is a graph showing cytokine expression in the lungs of mice treated with intranasal lipopolysaccharide (LPS) with or without 10 mg/kg sepiapterin (SP) treatment.
This is in line with the therapeutic effect of SP in a Dextran Sulfate Sodium//Azoxymethane model of colitis/colon cancer.
Mice were treated with either 10 mg/kg sepiapterin (SP) per day delivered via oral gavage or nothing for 3 days. Mice were then treated with 40 ug lipopolysaccharide (LPS) inhaled intranasally. 16-18 hours later, bronchoalveolar lavage (BAL) fluid was collected and assess for cytokine expression via ELISA. Untreated (UT) (n=1), LSP (n=3), LSP+SP (n=2). (FIG. 1).

[3] = system: CD8+ T cells (pmel splenocytes); assay: CFSE-labeled pmel splenocytes co-cultured with gp100-pulsed BMDCs; CFSE dilution by flow cytometry, cytokines by ELISA; assay type: cell-based; details: in vitro
Description: FIG. 2A is a graph showing the proliferation and activation of CD8^+ T cells in the presence of sepiapterin in vitro.
FIG. 2B is a graph showing cytokine (interferon gamma, IFN-γ) expression in cells in the presence of sepiapterin in vitro.
FIG. 2C is a graph showing cytokine (interleukin 2, IL-2) expression in cells in the presence of sepiapterin in vitro.
1×10^5 pmel splenocytes were labeled with carboxyfluorescein succinimidyl ester (CFSE) and then co-cultured, at either a 1:10 or 1:40 ratio (splenocytes:BMDC), with gp100-pulsed bone marrow derived dendritic cells (BMDCs) for 3 days. Sepiapterin (SP) was added after BMDCs were added to splenocytes. After incubation, CFSE dilution was measured via flow cytometry (FIG. 2A) and cytokine expression was measured via ELISA (FIGS. 2B and 2C). No DC=no dendritic cells, UT=untreated. […] The enhanced secretion of IFN-γ in FIG. 2B is a result of the higher number of T cells present in wells treated with SP.

OT-I cells = assay: OT-I splenocyte transfer with ova peptide-pulsed BMDCs; proliferation and IFN-γ by flow cytometry; assay type: in vivo, C57/B16 mice; details: mice
Protocol: FIG. 3A is a graph showing the proliferation and activation of CD8^+ T cells in the presence of sepiapterin in vivo.
FIG. 3B is a graph showing cytokine (IFN-γ) expression in cells in the presence of sepiapterin in vivo.
2×10^6 OT-I splenocytes were injected into C57/B16 mice via tail vein injection. 24 hours later, 1×10^6 ova peptide-pulsed bone marrow derived dendritic cells were injected into these mice subcutaneously. Starting on day 3, mice were given 10 mg/kg SP orally for 3 consecutive days. On day 6, mice were sacrificed and spleens were harvested and stimulated for 6 hours with brefeldin A (BFA), phorbol myristate acetate (PMA), and ionomycin. OT-I proliferation (FIG. 3A) and IFN-γ expression (FIG. 3B) were assessed via flow cytometry.

[4] = system: innate immune cell mediated inflammation in the colon; details: caused by DSS in the colon, preclinical models; cited from earlier work
[5] = healthy volunteers and subjects with Phenylketonuria, Primary BH4 Deficiencies, or diabetic gastroparesis; cited from earlier work

SMILES: C[C@H](O)C(=O)C1=Nc2c(nc(N)[nH]c2=O)NC1 [sepiapterin, (S)-2-amino-6-(2-hydroxypropanoyl)-7,8-dihydropteridin-4(3H)-one]
- oxidation stability [1]: prone to rapid oxidation when exposed to air
- cytokine expression in bronchoalveolar lavage (BAL) fluid [2]: lower levels of cytokine expression
- proliferation of CD8+ T cells (CFSE dilution) ([3]; 3 days co-culture, 1:10 or 1:40 splenocytes:BMDC, FIG. 2A): enhanced proliferation of anti-viral CD8^+ T cells in a dose dependent manner
- T cell activation and IFN-γ secretion ([3]; ELISA, FIGS. 2B and 2C): without directly affecting T cell activation and IFN-γ secretion
- OT-I proliferation (OT-I cells; 10 mg/kg orally for 3 consecutive days from day 3, spleens day 6, FIG. 3A): enhanced proliferation of OT-I cells
- T cell activation and IFN-γ secretion (OT-I cells; 10 mg/kg orally for 3 consecutive days, spleens stimulated 6 hours with BFA, PMA, ionomycin, FIG. 3B): minimal effect on T cell activation and IFN-γ secretion
- innate immune cell mediated inflammation [4]: profoundly suppress innate immune cell mediated inflammation
- tolerability [5]: well tolerated
